Consider 9 molecules from paper PMC6943434, “Novel Homo-Bivalent and Polyvalent Compounds Based on Ligustrazine and Heterocyclic Ring as Anticancer Agents” (Molecules, 2019).

Like-named read-outs stand apart in the source and are kept apart here. Bounds are passed on as bounds.

Assay [1] deals with FaDu (head and neck squamous carcinoma cell line). The assay is described as follows: MTT cell viability assay, FaDu. The class given is cell-based, human. In general terms: Tetrazolium assays rely on reduction of a dye to a coloured formazan, in cell work by metabolically active cells.
For assay [2], the system named is HeLa, Hep G2, MCF-7, FaDu, A549, MCF 10A. The assay is described as follows: MTT cell viability assay, summary over the cell line panel. It is filed as cell-based, human. To be noted: 48 h, span over the cell lines, read-out: IC50 range over tested cell lines. The protocol:
The tested cells were obtained from Shanghai Institute of Biochemistry and Cell Biology of the Chinese Academy of Sciences (Shanghai, China). HeLa and Hep G2 cell lines were cultured in Dulbecco’s modified Eagle’s medium (DMEM; gibco, Life Technologies, Carlsbad, CA, USA) supplemented with 10% fetal bovine serum (FBS; Biological Industries), 100 U/mL penicillin-streptomycin (PS; gibco, Life Technologies, Carlsbad, CA, USA). MCF-7 and A549 cell lines were maintained in RPMI-1640 media (gibco, Life Technologies, Carlsbad, CA, USA) supplemented with 10% FBS and 100 U/mL PS. FaDu cell lines were cultured in minimum essential medium (MEM; Gibco, Life Technologies, Carlsbad, CA, USA) supplemented with 10% FBS and 100 U/mL PS. MCF 10A cell lines were maintained in Mammary MEGM kit (Lonza/Clonetics) supplemented with 100 ng/mL cholera toxin (Sigma, Shanghai, China). Cell lines were grown at 37 °C in a humidified atmosphere of 5% CO2.
The growth-inhibitory effects against HeLa, Hep G2, MCF-7, FaDu, and A549 cancer cells and normal cell lines MCF 10A were determined by MTT assay. […] Cells were seeded in 96 well plates at a density of 1 × 10^4 cells per well and incubated for 24 h at 37 °C in a humidified atmosphere of 5% CO2. The cells were then incubated with various concentrations of drugs for 48 h in a 5% CO2 incubator at 37 °C. After treatment with 1 mg/mL 3-(4,5-dimethylthiazol-2-yl)-2,5-diphenyltetrazolium bromide (MTT) solution for 4 h, the formazan crystals were dissolved in 100 µL DMSO in each well. Plates were read on a microplate reader (Thermo Varioskan Flash 3001) at 490 nm. The experiment was performed in triplicate. The inhibitory concentration at 50% (IC50) was calculated based on concentration-inhibition relationships via regression using SPSS software (Version 17.0).

In assay [3] the test system is Hep G2 (hepatocarcinoma cell line). The assay is described as follows: MTT cell viability assay, Hep G2. The class given is cell-based. To be noted: Homo sapiens, HepG2, 48 h, read-out: Antiproliferative Activity IC50 ± SEM, Hep G2.
Assay [4] concerns MCF 10A (normal mammary epithelial cell). The assay is described as follows: MTT cell viability assay, MCF 10A. The class given is cell-based. To be noted: Homo sapiens, 48 h, normal cells, read-out: Antiproliferative Activity IC50 ± SEM, MCF 10A.
Assay [5] deals with HeLa (cervical cancer cell line). The assay is described as follows: MTT cell viability assay, HeLa. The class given is cell-based. The following applies: Homo sapiens, 48 h, read-out: Antiproliferative Activity IC50 ± SEM, HeLa.
The test system of assay [6] is MCF-7 (breast cancer cell line). The assay is described as follows: MTT cell viability assay, MCF-7. It is filed as cell-based. The following applies: Homo sapiens, MCF7, 48 h, read-out: Antiproliferative Activity IC50 ± SEM, MCF-7.
Assay [7] relates to A549 (epithelial cancer cell line). The assay is described as follows: MTT cell viability assay, A549. It is filed as cell-based. The following applies: Homo sapiens, 48 h, read-out: Antiproliferative Activity IC50 ± SEM, A549.
Assay [8] has as its system FaDu cells. The assay is described as follows: Flow cytometric analysis of apoptosis by annexin V-FITC/PI staining. To be noted: 24 h, control 8.23%. The class given is cell-based, human. The protocol:
Apoptosis in FaDu cells was evaluated by an annexin V-FITC/PI apoptosis detection kit (Beyotime Institute of Biotechnology, Shanghai, China). Briefly, FaDu cells were treated with various concentrations of compound 8e (2, 5, 10 nM) or DMSO as vehicle control for 24 h at 37 °C; then, the cells were washed twice with cold 1× PBS and centrifuged at 1000 rpm for 5 min. The harvested cells were resuspended gently in 400 µL binding buffer, containing 5 µL annexin V-FITC and 10 µL PI. After incubating for 15 min in the dark at room temperature, the cells were analyzed with flow cytometry (CyFlow® Cube 6, Sysmex). Data were shown as pseudo color graphs and analyzed using FlowJo Software (Tree Star Inc, Ashland, OR).
(In general: Flow cytometry measures light scatter and fluorescence of single cells or particles in a stream.)

Assay [9] has as its system FaDu cells. The assay is described as follows: Cell cycle analysis by PI staining. The following applies: 24 h; for percentage of cells in the S phase: control 28.1%; for population of the G0/G1 phase: control 51.9%. The class given is cell-based, human. On the procedure: The cell cycle analysis was carried out by a cell cycle and apoptosis analysis kit with a propidium iodide (PI) staining method (Beyotime Institute of Biotechnology, Shanghai, China). Briefly, FaDu cells were incubated with the above-mentioned doses of compound 8e for 24 h; all samples were collected, washed once with cold 1× PBS, and fixed by 70% ice-cold ethanol at 4 °C for 12 h. Then, the fixed cells were washed once with cold 1× PBS and stained with 500 µL 1× PI dye solution (containing 10 µL RNase A) at 37 °C for 30 min in the dark. The red fluorescence was detected using a flow cytometer (CyFlow® Cube 6, Sysmex). The data were analyzed using FlowJo Software (Tree Star Inc, Ashland, OR, USA).

The subject of assay [10] is FaDu cells. The assay is described as follows: Colony formation assay. It is filed as cell-based. To be noted: Homo sapiens, 240 h, 6 nM, 10 days, read-out: colony inhibition rate. The protocol:
FaDu cells were seeded in a 6-well plate with 500 cells per well and incubated for 24 h. Then, the cells were treated with compound 8e at various final concentrations of 0, 0.75, 1.50, 3 nM. Following treatment for 10 days, the cells were washed with PBS twice and fixed with 4% paraformaldehyde for 10 min at room temperature. Then, the cell colonies were visualized by staining with 0.1% crystal violet for 10 min. The image was photographed with Handy camera, and the numbers of cell colonies were analyzed using the open Image J software (Developed by National Institutes of Health). A group of >50 cells was defined as one colony. Triplicate wells were set up for each concentration.

The mark [11] stands for this setting: Homo sapiens, FaDu, 48 h, MTT, 48 h; read-out: Antiproliferative Activity IC50 ± SEM, FaDu.
Setting [12] is: SI = IC50 (MCF 10A)/IC50 (FaDu).

A word on the IC50: it is the concentration needed to halve the response being measured. For the molecule `Cc1nc(C)c(CN(CCCCCCCCCCN(Cc2nc(C)c(C)nc2C)Cc2nc(C)c(C)nc2C)Cc2nc(C)c(C)nc2C)nc1C` [Compound 6f, N^1,N^1,N^10,N^10-Tetrakis((3,5,6-Trimethylpyrazin-2-yl)Methyl)Decane-1,10-Diamine], the IC50 in [1] (setting [11]) was 10.9 ± 0.12 µM; in assay [2] (Homo sapiens), 6.57 to 20.8 µM; in assay [3] it was 10.7 ± 0.22 µM; in assay [4] it was 13 ± 0.55 µM; in [5], 10.2 ± 0.55 µM; in assay [6] it was 20.83 ± 0.14 µM. In assay [7], the IC50 was determined as 20.1 ± 0.41 µM. Moreover, the “SI: selectivity index” value in assay [1] (setting [12]) is reported as 1.19.
On to `Cc1nc(C)c(CN(CCCCCCCCCCCCN(Cc2nc(C)c(C)nc2C)Cc2nc(C)c(C)nc2C)Cc2nc(C)c(C)nc2C)nc1C` [Compound 6g, N^1,N^1,N^12,N^12-Tetrakis((3,5,6-Trimethylpyrazin-2-yl)Methyl)Dodecane-1,12-Diamine], for which the IC50 is 6.8 ± 0.05 µM in [1] (setting [11]); 6.57 to 20.8 µM in assay [2] (Homo sapiens); 9.62 ± 0.11 µM in assay [3]; 6.57 ± 0.3 µM in assay [4]; 7.89 ± 0.86 µM in [5]; 9.83 ± 0.17 µM in assay [6]. In addition, in [7], the IC50 was determined as 9.23 ± 0.16 µM. Further, in [1] (setting [12]), the “SI: selectivity index” value came out at 0.97.
As usually defined, the inhibition is the drop in the measured response relative to a control, in per cent. Turning to `Cc1nc(C)c(C(=O)NCCCCCCCCCCNC(=O)c2nc(C)c(C)nc2C)nc1C` [Compound 8e, N,N′-(Decane-1,10-Diyl)Bis(3,5,6-Trimethylpyrazine-2-Carboxamide)], the IC50 in [1] (setting [11]) was 0.00136 ± 0.00035 µM; in assay [2], 0.00136 to 1.42 µM; in assay [3], more than 20 µM; in assay [4], 0.047 ± 0.008 µM; in assay [5] it was 1.42 ± 0.71 µM; in assay [6], 0.037 ± 0.001 µM. Besides, the IC50 in [7] was determined as 1.05 ± 0.05 µM. In addition, the “SI: selectivity index” value in assay [1] (setting [12]) was determined as 34.56. The “apoptotic cells (early and late apoptosis ratios)” value with FaDu cells [8] (2 nM) turned out to be 34.2%; with FaDu cells [8] (5 nM), 57.7%; with FaDu cells [8] (10 nM) it was 79.5%. The “percentage of cells in the S phase” value worked out at 33.7% with FaDu cells [9] (2 nM), 44.3% with FaDu cells [9] (5 nM) and 54.7% with FaDu cells [9] (10 nM). For the same molecule, the “population of the G0/G1 phase” value is 41.8% in the assay on FaDu cells [9] (2 nM), 44.2% in the assay on FaDu cells [9] (5 nM) and 32.4% in the assay on FaDu cells [9] (10 nM). For the same molecule, the inhibition at 0.006 µM with FaDu cells [10] is approximately 85.4%.
Regarding `Nc1cccc(C(=O)NCCCCCCCCCCNC(=O)c2cccc(N)c2)c1` [Compound 32e, N,N′-(Decane-1,10-Diyl)bis(3-Aminobenzamide)], the IC50 in [1] (setting [11]), in [3], in assay [4], in [5], in [6] and in assay [7] was more than 20 µM in each case.
In the case of `COc1cc(OC)cc(C(=O)NCCCCCCCCCCNC(=O)c2cc(OC)cc(OC)c2)c1` [Compound 33e, N,N′-(Decane-1,10-Diyl)Bis(3,5-Dimethoxybenzamide)], the IC50 was 10.4 ± 0.949 µM in [1] (setting [11]); more than 20 µM in [3]; more than 20 µM in assay [4]; more than 20 µM in assay [5]; more than 20 µM in [6]; more than 20 µM in assay [7]. Besides, in assay [1] (setting [12]), the “SI: selectivity index” value is more than 1.92.
On to `COc1cc(C(=O)NCCCCCCCCCCNC(=O)c2cc(OC)c(OC)c(OC)c2)cc(OC)c1OC` [Compound 34e, N,N′-(Decane-1,10-Diyl)Bis(3,4,5-Trimethoxybenzamide)], for which the IC50 was 5.85 ± 0.408 µM in assay [1] (setting [11]); more than 20 µM in [3]; more than 20 µM in [4]; more than 20 µM in assay [5]; more than 20 µM in [6]; more than 20 µM in [7]. Further, the “SI: selectivity index” value in assay [1] (setting [12]) is on record as more than 3.42.
On to `COc1ccc(C(=O)NCCCCCCCCCCNC(=O)c2ccc(OC)c(OC)c2OC)c(OC)c1OC` [Compound 35e, N,N′-(Decane-1,10-Diyl)Bis(2,3,4-Trimethoxybenzamide)], for which the IC50 in assay [1] (setting [11]), in assay [3], in [4], in assay [5], in assay [6] and in [7] was more than 20 µM throughout.
Turning to `COc1cccc2c1C(=O)c1c(O)c3c(c(O)c1C2=O)C[C@@](O)(C(=O)CO)C[C@@H]3O[C@H]1C[C@H](N)[C@H](O)[C@H](C)O1` [DOX, doxorubicin, reference compound], the concentration for half-maximal inhibition (IC50) in assay [1] (Homo sapiens, FaDu; MTT, 48 h; read-out: Antiproliferative Activity IC50 ± SEM, FaDu) is 1.27 ± 0.13 µM; in [3], 28 ± 1.09 µM; in assay [4], 0.55 ± 0.03 µM; in assay [5], 11.4 ± 0.48 µM; in assay [6], 6 ± 0.07 µM; in [7], more than 100 µM.
Regarding `Cc1nc(C)c(C)nc1C` [TMP, 2,3,5,6-tetramethylpyrazine, reference compound], the IC50 in assay [1] (setting [11]), in assay [3], in assay [4], in assay [5], in assay [6] and in [7] was more than 100 µM throughout.
